This passage reports IC50 results from patent publication US20100311714A1, “1H-IMIDAZO[4,5-c]QUINOLINONE COMPOUNDS” (priority 2009, published 2010).

Structures are written as SMILES.

Holding throughout (type): biochemical
In assay [1] the target is T1, PI3K alfa (Homo sapiens, UniProt P42336).
T1 construct: His tag (C); made in house; host or cells: baculovirus BV1075; Tn5 (Trichoplusia ni) or TiniPro insect cells
Description: PI3K alpha kinase assay (Kinase-Glo luminescence). The following applies: read-out: EPK_PI3Kalfa/IC50. The essentials: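 Kinase-Glo luminescence read of ATP remaining after PI3Kα (10 nM) phosphorylates 10 μg/mL bovine liver phosphatidylinositol with 1 μM ATP, pH 7.5 TRIS, 3 mM MgCl2, 0.05% CHAPS; 60 min at room temperature. IC50 from 4-parameter logistic fit over 8 concentrations.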
Background: Kinase-Glo reads ATP consumption through a luciferase reaction.

Assay [2] concerns the target T2, PI3K beta (Homo sapiens, UniProt P42338).
T2 construct: for the full-length p110-b subunit are generated and fused by overlapping PCR; His tag (C); made in house; host or cells: baculovirus BV949; Tn5 (Trichoplusia ni) or TiniPro insect cells
Put plainly: PI3K beta kinase assay (Kinase-Glo luminescence). Particulars: read-out: EPK_PI3Kbeta/IC50. In short, it runs like this:
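PI3Kβ construct BV949 (p85 iSH2–p110β full-length, C-His), 25 nM, reacted with 1 μM ATP and 10 μg/mL phosphatidylinositol in Tris pH 7.5, MgCl2, NaCl, CHAPS, DTT buffer, 60 min at room temperature. Remaining ATP by Kinase-Glo luminescence; IC50 from 4-parameter logistic fit of 8 concentrations.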

In assay [3] the target is T3, PI3K delta (Homo sapiens, UniProt O00329).
T3 construct: for the full-length p110-d subunit are generated and fused by overlapping PCR; His tag (C); made in house; host or cells: baculovirus BV1060; Tn5 (Trichoplusia ni) or TiniPro insect cells
Put plainly: PI3K delta kinase assay (Kinase-Glo luminescence). Particulars: read-out: EPK_PI3Kdelta/IC50. The essentials: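 Kinase-Glo ATP-depletion luminescence using 10 nM p85(iSH2)-linker-p110δ full-length His-tag construct from insect cells, with 1 μM ATP and 10 μg/mL phosphatidylinositol in 10 mM Tris pH 7.5, 3 mM MgCl2, 50 mM NaCl, 0.05% CHAPS, 1 mM DTT. 60 min room temperature; IC50 from 4-parameter logistic fit over 8 concentrations.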

T1 sequence (P42336 with tags, fused parts or gaps limits assumed): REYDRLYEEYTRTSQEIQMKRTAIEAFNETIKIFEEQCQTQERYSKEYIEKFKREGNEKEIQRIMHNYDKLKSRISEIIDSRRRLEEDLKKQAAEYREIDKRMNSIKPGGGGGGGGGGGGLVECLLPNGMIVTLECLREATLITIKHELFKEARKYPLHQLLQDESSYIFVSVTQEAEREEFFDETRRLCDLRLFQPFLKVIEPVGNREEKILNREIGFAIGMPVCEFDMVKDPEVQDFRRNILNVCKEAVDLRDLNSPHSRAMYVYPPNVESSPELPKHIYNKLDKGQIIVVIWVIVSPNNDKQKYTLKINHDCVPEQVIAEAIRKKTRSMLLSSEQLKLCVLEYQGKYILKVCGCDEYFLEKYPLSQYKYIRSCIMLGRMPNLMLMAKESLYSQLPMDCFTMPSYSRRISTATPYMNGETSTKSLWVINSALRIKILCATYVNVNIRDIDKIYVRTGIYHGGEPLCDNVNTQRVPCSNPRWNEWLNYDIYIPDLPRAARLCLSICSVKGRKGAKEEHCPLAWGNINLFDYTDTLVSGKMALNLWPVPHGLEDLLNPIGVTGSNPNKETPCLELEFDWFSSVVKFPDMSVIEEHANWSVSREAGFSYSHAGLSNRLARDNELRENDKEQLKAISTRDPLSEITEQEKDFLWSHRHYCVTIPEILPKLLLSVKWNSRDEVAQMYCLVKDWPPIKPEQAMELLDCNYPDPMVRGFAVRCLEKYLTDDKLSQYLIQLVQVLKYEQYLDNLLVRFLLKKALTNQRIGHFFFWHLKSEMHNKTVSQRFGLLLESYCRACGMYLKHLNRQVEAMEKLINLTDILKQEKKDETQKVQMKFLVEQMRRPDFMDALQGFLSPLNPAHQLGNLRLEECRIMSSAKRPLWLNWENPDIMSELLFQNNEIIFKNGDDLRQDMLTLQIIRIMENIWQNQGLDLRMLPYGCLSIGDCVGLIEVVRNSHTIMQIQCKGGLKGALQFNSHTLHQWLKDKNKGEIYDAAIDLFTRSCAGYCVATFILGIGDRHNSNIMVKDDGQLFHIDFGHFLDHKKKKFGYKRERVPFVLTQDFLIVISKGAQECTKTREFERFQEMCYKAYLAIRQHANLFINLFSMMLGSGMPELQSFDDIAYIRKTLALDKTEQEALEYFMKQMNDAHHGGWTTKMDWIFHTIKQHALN
T3 sequence (O00329 with tags, fused parts or gaps limits assumed): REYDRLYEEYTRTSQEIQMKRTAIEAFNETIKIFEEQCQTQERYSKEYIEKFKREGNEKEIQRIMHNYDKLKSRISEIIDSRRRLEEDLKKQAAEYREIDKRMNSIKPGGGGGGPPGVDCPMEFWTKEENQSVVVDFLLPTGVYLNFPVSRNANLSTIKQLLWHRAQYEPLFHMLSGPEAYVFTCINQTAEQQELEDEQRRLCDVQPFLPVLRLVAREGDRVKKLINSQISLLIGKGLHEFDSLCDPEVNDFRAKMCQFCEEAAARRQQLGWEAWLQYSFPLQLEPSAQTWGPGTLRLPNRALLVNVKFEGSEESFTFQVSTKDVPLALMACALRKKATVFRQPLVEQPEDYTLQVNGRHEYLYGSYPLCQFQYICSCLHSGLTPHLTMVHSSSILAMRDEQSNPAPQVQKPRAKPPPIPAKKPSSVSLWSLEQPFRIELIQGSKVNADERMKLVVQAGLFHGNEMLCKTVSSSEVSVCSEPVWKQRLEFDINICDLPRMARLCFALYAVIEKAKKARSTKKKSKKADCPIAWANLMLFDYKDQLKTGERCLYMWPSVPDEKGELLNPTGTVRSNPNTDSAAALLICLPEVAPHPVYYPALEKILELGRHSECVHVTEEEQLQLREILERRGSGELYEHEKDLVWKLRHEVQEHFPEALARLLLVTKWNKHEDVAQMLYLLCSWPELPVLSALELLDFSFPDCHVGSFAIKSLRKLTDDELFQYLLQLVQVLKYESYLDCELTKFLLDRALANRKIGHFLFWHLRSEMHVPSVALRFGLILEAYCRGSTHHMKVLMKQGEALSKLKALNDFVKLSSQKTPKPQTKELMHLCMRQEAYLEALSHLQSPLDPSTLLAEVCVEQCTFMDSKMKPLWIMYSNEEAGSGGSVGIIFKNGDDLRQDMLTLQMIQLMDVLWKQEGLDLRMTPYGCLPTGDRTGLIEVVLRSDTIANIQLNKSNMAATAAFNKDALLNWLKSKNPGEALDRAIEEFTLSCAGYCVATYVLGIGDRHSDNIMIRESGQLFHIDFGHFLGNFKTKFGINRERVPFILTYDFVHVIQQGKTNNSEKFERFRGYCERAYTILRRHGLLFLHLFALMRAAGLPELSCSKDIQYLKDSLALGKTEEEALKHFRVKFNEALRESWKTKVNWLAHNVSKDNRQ
T2 sequence (P42338 with tags, fused parts or gaps limits assumed): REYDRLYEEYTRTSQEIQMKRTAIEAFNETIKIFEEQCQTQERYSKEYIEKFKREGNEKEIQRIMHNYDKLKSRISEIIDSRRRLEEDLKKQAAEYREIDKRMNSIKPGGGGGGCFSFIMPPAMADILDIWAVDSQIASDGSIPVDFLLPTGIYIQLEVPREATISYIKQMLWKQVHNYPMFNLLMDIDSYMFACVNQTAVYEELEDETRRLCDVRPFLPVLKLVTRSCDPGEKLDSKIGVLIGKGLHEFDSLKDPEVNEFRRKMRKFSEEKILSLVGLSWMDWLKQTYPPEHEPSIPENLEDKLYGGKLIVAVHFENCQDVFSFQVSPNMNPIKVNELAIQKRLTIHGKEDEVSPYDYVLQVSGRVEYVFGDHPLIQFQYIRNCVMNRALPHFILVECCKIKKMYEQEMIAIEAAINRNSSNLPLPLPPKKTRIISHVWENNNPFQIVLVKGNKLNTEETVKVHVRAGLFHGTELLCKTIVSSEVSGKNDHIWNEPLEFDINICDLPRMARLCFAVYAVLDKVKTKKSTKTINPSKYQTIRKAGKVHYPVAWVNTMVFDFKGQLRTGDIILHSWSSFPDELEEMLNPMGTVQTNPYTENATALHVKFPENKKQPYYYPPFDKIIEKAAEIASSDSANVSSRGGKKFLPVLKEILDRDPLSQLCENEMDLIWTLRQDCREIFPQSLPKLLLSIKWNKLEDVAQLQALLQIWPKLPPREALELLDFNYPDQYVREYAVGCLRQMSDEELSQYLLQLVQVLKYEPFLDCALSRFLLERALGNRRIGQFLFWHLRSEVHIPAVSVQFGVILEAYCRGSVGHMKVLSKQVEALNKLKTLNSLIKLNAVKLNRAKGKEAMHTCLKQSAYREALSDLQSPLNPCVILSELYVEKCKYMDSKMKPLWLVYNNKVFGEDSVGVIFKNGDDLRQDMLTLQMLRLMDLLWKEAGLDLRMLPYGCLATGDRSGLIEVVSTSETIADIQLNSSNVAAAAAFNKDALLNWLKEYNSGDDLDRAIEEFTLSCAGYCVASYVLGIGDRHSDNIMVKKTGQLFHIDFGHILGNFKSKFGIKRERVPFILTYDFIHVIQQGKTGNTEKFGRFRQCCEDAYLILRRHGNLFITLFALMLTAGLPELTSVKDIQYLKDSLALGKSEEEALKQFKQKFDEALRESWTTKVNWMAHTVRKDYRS

Turning to `COCCN(C)c1ccc(-n2c(=O)n(C)c3cnc4ccc(-c5cnc(N)c(C(F)(F)F)c5)cc4c32)c(C)n1` [Example 15.1, 8-(6-Amino-5-trifluoromethyl-pyridin-3-yl)-1-{6-[(2-methoxy-ethyl)-methyl-amino]-2-methyl-pyridin-3-yl}-3-methyl-1,3-dihydro-imidazo[4,5-c]quinolin-2-one], the results for the IC50 in assay [1], in assay [2] and in assay [3] were 7 nM, 15 nM and 7 nM, respectively.
For `CNc1ncc(-c2ccc3ncc4c(c3c2)n(-c2ccc(N(C)CCOC)nc2C)c(=O)n4C)cn1` [Example 15.2, 1-{6-[(2-Methoxy-ethyl)-methyl-amino]-2-methyl-pyridin-3-yl}-3-methyl-8-(2-methylamino-pyrimidin-5-yl)-1,3-dihydro-imidazo[4,5-c]quinolin-2-one], the IC50 in assay [1] was found to be 39 nM; in assay [2], 541 nM; in assay [3], 32 nM.
The matching figures for `CCOc1ccc(-c2ccc3ncc4c(c3c2)n(-c2ccc(N(C)CCOC)nc2C)c(=O)n4C)cn1` [Example 15.3, 8-(6-Ethoxy-pyridin-3-yl)-1-{6-[(2-methoxy-ethyl)-methyl-amino]-2-methyl-pyridin-3-yl}-3-methyl-1,3-dihydro-imidazo[4,5-c]quinolin-2-one]: 103 nM, 793 nM and 117 nM.
The matching figures for `CNc1ccc(-c2ccc3ncc4c(c3c2)n(-c2ccc(N(C)CCOC)nc2C)c(=O)n4C)cn1` [Example 15.4, 1-{6-[(2-Methoxy-ethyl)-methyl-amino]-2-methyl-pyridin-3-yl}-3-methyl-8-(6-methylamino-pyridin-3-yl)-1,3-dihydro-imidazo[4,5-c]quinolin-2-one]: 46 nM, 407 nM and 36 nM.
On to `COCCN(C)c1ccc(-n2c(=O)n(C)c3cnc4ccc(-c5cnc(N(C)C)nc5)cc4c32)c(C)n1` [Example 15.5, 8-(2-Dimethylamino-pyrimidin-5-yl)-1-{6-[(2-methoxy-ethyl)-methyl-amino]-2-methyl-pyridin-3-yl}-3-methyl-1,3-dihydro-imidazo[4,5-c]quinolin-2-one], for which the IC50 in assay [1] was found to be 31 nM; in assay [2], 448 nM; in assay [3] it was 44 nM.
For `CCNc1cc(-c2ccc3ncc4c(c3c2)n(-c2ccc(N(C)CCOC)nc2C)c(=O)n4C)cnc1C` [Example 15.6, 8-(5-Ethylamino-6-methyl-pyridin-3-yl)-1-{6-[(2-methoxy-ethyl)-methyl-amino]-2-methyl-pyridin-3-yl}-3-methyl-1,3-dihydro-imidazo[4,5-c]quinolin-2-one], the IC50 in assay [1] worked out at 12 nM; in assay [2], 28 nM; in assay [3] it was 9 nM.
The matching figures for `COCCN(C)c1ccc(-n2c(=O)n(C)c3cnc4ccc(-c5cnc6c(ccn6C)c5)cc4c32)c(C)n1` [Example 15.7, 1-{6-[(2-Methoxy-ethyl)-methyl-amino]-2-methyl-pyridin-3-yl}-3-methyl-8-(1-methyl-1H-pyrrolo[2,3-b]pyridin-5-yl)-1,3-dihydro-imidazo[4,5-c]quinolin-2-one]: 18 nM, 279 nM and 21 nM.
As to `COCCN(C)c1ccc(-n2c(=O)n(C)c3cnc4ccc(-c5cncc(N)c5)cc4c32)c(C)n1` [Example 15.8, 8-(5-Amino-pyridin-3-yl)-1-{6-[(2-methoxy-ethyl)-methyl-amino]-2-methyl-pyridin-3-yl}-3-methyl-1,3-dihydro-imidazo[4,5-c]quinolin-2-one], the IC50 in assay [1] turned out to be 49 nM; in assay [2], 98 nM; in assay [3], 45 nM.
The matching figures for `COCCN(C)c1ccc(-n2c(=O)n(C)c3cnc4ccc(-c5cnc(CO)c(OC)c5)cc4c32)c(C)n1` [Example 15.9, 8-(6-Hydroxymethyl-5-methoxy-pyridin-3-yl)-1-{6-[(2-methoxy-ethyl)-methyl-amino]-2-methyl-pyridin-3-yl}-3-methyl-1,3-dihydro-imidazo[4,5-c]quinolin-2-one]: 23 nM, 15 nM and 40 nM.
